Data reported in patent US20250304623A1, “PEPTIDES FOR INTRACELLULAR DELIVERY” (UNIVERSIDADE DE SANTIAGO DE COMPOSTELA, priority 2022, published 2025).

Assays:
Format in all cases: cell-based
Hek293 cells [1] = test: EGFP mRNA delivery, robotic library screening, Hek293
Description: Cells were seeded in a 96 well plate the day before the experiment at a concentration of 50,000 cell/mL (100 μL/w) in DMEM+10% FBS+1% Gln-Abt. For robotic library screening, the delivery of EGFP-mRNA (from TriLink, fully substituted with 5-methoxyuridine, capped and polyadenylated; TriLink, CleanCap® EGFP mRNA (5moU), ref. L-7201) in six different cell lines was performed. Amphiphilic molecule stock solutions were prepared in DMSO as described above and diluted in DMEM to afford a range of concentrations. The solutions of EGFP-mRNA/amphiphilic molecule complexes were freshly prepared prior to the transfection experiments. 35 μL of the corresponding amphiphile were added to 10 μL of a solution of EGFP-mRNA at 10 ng/μL in DMEM. The mixture was shaken for 30 min at room temperature before the addition to the cells. The cell medium was aspirated, and cells were washed with PBS twice. Cells were covered with 39 μL of DMEM and 11 μL of the complex's solution were added to the cells and incubated for 4 h (final concentration of peptide=2.5, 5 and 10 μM; final concentration of EGFP-mRNA=25 ng/well). After the incubation, the medium was replaced by 100 μL of fresh DMEM supplemented with 10% FBS. The total EGFP fluorescence was quantified after 72 h in a well plate reader. Amphiphile transfection efficiency was compared and normalized to Lipofectamine® MessengerMax efficiency (value of 1 in Tables 1-5 and 7; double underlined numbers). All experiments were done in triplicate.
Tables 1-7: RLuc (pDNA) or EGFP (mRNA) expression levels were normalized to Lipofectamine reagents (value=1) and expressed as fold-times signal increase. In the case of siRNA, the siRNA treated cells fluorescence was compared with siMOCK control fluorescence, while Cas9-RNP mediated knockout was measured against the fluorescence of untreated cells. In both siRNA and Cas9-RNP, values are expressed as % fluorescence reduction. Amphiphile concentration was 5 μM in all cases. All experiments were performed in triplicate.
Tables 14-19 show the mean (triplicates) fluorescence intensity measured after the transfection of EGFP mRNA by different amphiphiles at different concentrations in a variety of cell lines. Background fluorescence values, accounted by untreated control cells, were subtracted for processing.

HepG2 cells = test: RLuc pDNA delivery, robotic library screening, HepG2
How it was run: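 After the 4 h exposure the complexes were replaced with fresh DMEM plus 10% FBS. At 72 hours cells were washed with HBSS, kept 30 minutes at 37° C. for basal readings, then given coelenterazine h (5 μM final) for 10 minutes before total luminescence was read. Triplicate means had untransfected background subtracted and were also expressed relative to Lipofectamine® 2000 set at 1.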

Hek293 cells [2] = test: RLuc pDNA delivery, robotic library screening, Hek293; conditions: 5 μM

Ac-RRLK*RLK*RRLK*RL-NH2 [Peptide 13.3]
mean fluorescence intensity (EGFP mRNA) (Hek293 cells [1]; Dodecanal, 10 μM): 695 | mean fluorescence intensity (EGFP mRNA) (Hek293 cells [1]; Myristoleyl, 2.5 μM): 1316 | mean fluorescence intensity (EGFP mRNA) (Hek293 cells [1]; Myristoleyl, 5 μM): 1229 | mean fluorescence intensity (EGFP mRNA) (Hek293 cells [1]; Myristoleyl, 10 μM): 889 | mean fluorescence intensity (EGFP mRNA) (Hek293 cells [1]; Oleyl, 2.5 μM): 1384 | mean fluorescence intensity (EGFP mRNA) (Hek293 cells [1]; Oleyl, 5 μM): 853 | mean fluorescence intensity (EGFP mRNA) (Hek293 cells [1]; Petroselinyl, 2.5 μM): 768 | mean fluorescence intensity (EGFP mRNA) (Hek293 cells [1]; Petroselinyl, 5 μM): 1046 | mean fluorescence intensity (EGFP mRNA) (Hek293 cells [1]; Petroselinyl, 10 μM): 964 | mean luminescent intensity (RLuc pDNA) (HepG2 cells; Myristoleyl, 5 μM): 91601 RLU | mean luminescent intensity (RLuc pDNA) (HepG2 cells; Myristoleyl, 10 μM): 54569 RLU | mean luminescent intensity (RLuc pDNA) (HepG2 cells; Myristoleyl, 15 μM): 59751 RLU | mean luminescent intensity (RLuc pDNA) (HepG2 cells; Oleyl, 15 μM): −1067 RLU | mean luminescent intensity (RLuc pDNA) (HepG2 cells; Palmitoleyl, 5 μM): 70999 RLU | mean luminescent intensity (RLuc pDNA) (HepG2 cells; Palmitoleyl, 15 μM): 16521 RLU | mean luminescent intensity (RLuc pDNA) (HepG2 cells; Petroselinyl, 5 μM): 76240 RLU | mean luminescent intensity (RLuc pDNA) (Hek293 cells [2]; Dodecanal): 295675 RLU | mean luminescent intensity (RLuc pDNA) (Hek293 cells [2]; Myristoleyl): 368875 RLU
